pIC50: −log10 of the molar value. Several values for one entry are separate records, joined by “and”; a condition that tells them apart may be missing. Equal values may be shown once. Entries after “also recorded” stand apart in the source; their conditions may differ.
Assays:
[1] = tested on: IK in rat DRG; experiment: Inhibition of IK current in dissociated rat DRG neurons; assay type: cell-based; details: for pIC50: rat DRG neurons, read-out: Inhibition of Currents in rat DRG: IK IC50; for K/T: ratio of IK IC50 to T-type IC50
Text: (§1) A representative panel of AFA/EX compounds was investigated on a variety of recombinant human ion channels expressed in mammalian cells and on native ion channels in dissociated rat dorsal root ganglion (DRG) neurons. […] Thus, this panel of compounds was next investigated on their effects on itching scratching behavior in two well-established itching models in mice.

[2] = tested on: INa in rat DRG; experiment: Inhibition of INa current in dissociated rat DRG neurons; assay type: cell-based; details: for pIC50: rat DRG neurons, read-out: Inhibition of Currents in rat DRG: INa IC50; for Na/T: ratio of INa IC50 to T-type IC50
Text: as §1

[3] = target: T1, hCav3.2 Channel (Homo sapiens, UniProt O95180); experiment: Recombinant hCav3.2 channel expressed in mammalian cells; assay type: cell-based; set-up: hCav3.2 Channel % Use Dep. (use dependent inhibition): concentration or dose not given beside the values
T1 construct: expressed in transfected cells
Text: as §1

[4] = target: T2, hERG potassium (K+) channels (Homo sapiens, UniProt Q12809); experiment: hERG potassium channel inhibition; assay type: cell-based
T2 construct: expressed in transfected cells
Text: as §1

[5] = tested on: histamine-induced itching; experiment: Histamine-induced itching (neck model of itch) in mice; assay type: in vivo, mouse; details: 30 mg/kg i.p., 30 min before pruritogen
Description: (§2) Neck model of itch was employed. Mice (C57BL/6, male, 3-4 months old) were shaved at the nape of the neck 2-3 days before experiments. On the day of behavioral testing mice were individually placed in small plastic chambers (12 cm L×9.5 W×12 H) that inserted into an ordinary homecage at least 30 min for habituation and recorded baseline of behavior using a video camera and a piezoelectric floor sensor operated by a validated homecage behavioral monitory system, SmartCage, which can monitor multiple mouse scratching behaviors simultaneously. Treatment with an individual test article (10 representative AFA-compounds, each at 30 mg/kg) or vehicle (0.5% hydroxyl propyl cellulose aqueous solution containing 2% DMSO) were intraperitoneally (i.p.) injected 30 min prior to itching induction. Mice were given an intradermal injection of 50 μl of a pruritogen, chloroquine or histamine into the nape of the neck. Immediately after the injection, mice were returned to their chambers and were continually recorded by the piezoelectric floor sensor for 30 min. Human manual scoring of itching scratch behavior in real-time and confirmed by video and/or piezoelectric recordings offline. The itch behavior was quantified by counting the number of scratches in a blinded to the treatment manner. A scratch was counted when a mouse lifted its hindpaw to scratch the shaved region and returned the paw to the floor or to the mouth for licking. The piezoelectric signals with a larger and regular waveform distinguished from normal homecage activity were analyzed off-line to objectively quantifying scratch episodes and durations.

[6] = target: hCav2.2 (Homo sapiens, UniProt Q00975); experiment: Recombinant hCav2.2 channel expressed in mammalian cells; assay type: cell-based; details: for pIC50: recombinant human channel
Text: as §1

[7] = tested on: chloroquine-induced itching; experiment: Chloroquine-induced itching (neck model of itch) in mice; assay type: in vivo, mouse; details: 30 mg/kg i.p., 30 min before pruritogen
Description: as §2

[8] = target: hCav1.2 (Homo sapiens, UniProt Q13936); experiment: Recombinant hCav1.2 channel expressed in mammalian cells; assay type: cell-based
Text: as §1

[9] = target: T3, T current in rat DRG (Rattus norvegicus, UniProt Q9EQ60); experiment: Inhibition of T current in dissociated rat DRG neurons; assay type: cell-based; details: read-out: Inhibition of Currents in rat DRG: T IC50
T3 construct: native ion channels in dissociated rat dorsal root ganglion (DRG) neurons; from tissue; host or cells: dissociated rat dorsal root ganglion neurons
Text: as §1

[10] = tested on: hiPSC INa; experiment: hiPSC INa current; assay type: cell-based, human
[11] = target: hNav1.5 (Homo sapiens, UniProt Q14524); experiment: Recombinant hNav1.5 channel expressed in mammalian cells; assay type: cell-based
Text: as §1

[12] = tested on: citric acid-induced cough; experiment: Citric acid-induced cough in naive, conscious guinea pigs; assay type: in vivo, guinea pig; details: for reduction of the number of cough events: guinea pig
Description: Guinea pigs (male, 280 g body weight, Hartley Crl:HA, Charles River) were maintained in temperature 21±2° C., humidity 55±10%, 12 hours on-12 hours off light cycle, with food and water ad libitum for at least 1 week before testing. Cough was induced with citric acid aerosol inhalation and cough assessment by human manual score (Gallico, Borghi et al. 1994). Individual animals were placed in a 4 L plexiglas observation chambers continuously filled with 17.5% citric acid aerosol. Animal cough counts were recorded for 5 min. Coughs can be recognized on the basis of sound associated with a rapid inspiration followed by a rapid expiration. Only the animal with cough counts >=10 times/5 min was selected for experiment. The selected animal was then randomized divided into 5 groups, n=8/group. Five days after screening test, the representative AFA-compound, EX-17 at 0, 3, 10 and 30 mg/kg were administered 30 minutes while the benchmark dextromethorphan hydrobromide (60 mg/kg, p.o.) 60 minutes prior to the citric acid inhalation, based on their PK profiles. […] The latency to the first cough has been used as an additional parameter to evaluate antitussive property.
Using the same test protocol, three more representative EX-compounds EX-128, -130 and -132 (each 30 mg/kg, p.o.) or vehicle were tested by orally administering 30 minutes while dextromethorphan hydrobromide (60 mg/kg, p.o.) 60 minutes prior to the citric acid inhalation, based on their PK profiles. […] The latencies to the first cough were increased with three compounds and the benchmark (FIG. 2B).

[13] = tested on: T-type Ca2+ current; details: Avdonin et al., 2000; cited from earlier work
[14] = 30 mg/kg p.o., 30 min before citric acid
[15] = 30 mg/kg p.o., vs vehicle-treated control

hCav2.2, sequence (Q00975 whole entry): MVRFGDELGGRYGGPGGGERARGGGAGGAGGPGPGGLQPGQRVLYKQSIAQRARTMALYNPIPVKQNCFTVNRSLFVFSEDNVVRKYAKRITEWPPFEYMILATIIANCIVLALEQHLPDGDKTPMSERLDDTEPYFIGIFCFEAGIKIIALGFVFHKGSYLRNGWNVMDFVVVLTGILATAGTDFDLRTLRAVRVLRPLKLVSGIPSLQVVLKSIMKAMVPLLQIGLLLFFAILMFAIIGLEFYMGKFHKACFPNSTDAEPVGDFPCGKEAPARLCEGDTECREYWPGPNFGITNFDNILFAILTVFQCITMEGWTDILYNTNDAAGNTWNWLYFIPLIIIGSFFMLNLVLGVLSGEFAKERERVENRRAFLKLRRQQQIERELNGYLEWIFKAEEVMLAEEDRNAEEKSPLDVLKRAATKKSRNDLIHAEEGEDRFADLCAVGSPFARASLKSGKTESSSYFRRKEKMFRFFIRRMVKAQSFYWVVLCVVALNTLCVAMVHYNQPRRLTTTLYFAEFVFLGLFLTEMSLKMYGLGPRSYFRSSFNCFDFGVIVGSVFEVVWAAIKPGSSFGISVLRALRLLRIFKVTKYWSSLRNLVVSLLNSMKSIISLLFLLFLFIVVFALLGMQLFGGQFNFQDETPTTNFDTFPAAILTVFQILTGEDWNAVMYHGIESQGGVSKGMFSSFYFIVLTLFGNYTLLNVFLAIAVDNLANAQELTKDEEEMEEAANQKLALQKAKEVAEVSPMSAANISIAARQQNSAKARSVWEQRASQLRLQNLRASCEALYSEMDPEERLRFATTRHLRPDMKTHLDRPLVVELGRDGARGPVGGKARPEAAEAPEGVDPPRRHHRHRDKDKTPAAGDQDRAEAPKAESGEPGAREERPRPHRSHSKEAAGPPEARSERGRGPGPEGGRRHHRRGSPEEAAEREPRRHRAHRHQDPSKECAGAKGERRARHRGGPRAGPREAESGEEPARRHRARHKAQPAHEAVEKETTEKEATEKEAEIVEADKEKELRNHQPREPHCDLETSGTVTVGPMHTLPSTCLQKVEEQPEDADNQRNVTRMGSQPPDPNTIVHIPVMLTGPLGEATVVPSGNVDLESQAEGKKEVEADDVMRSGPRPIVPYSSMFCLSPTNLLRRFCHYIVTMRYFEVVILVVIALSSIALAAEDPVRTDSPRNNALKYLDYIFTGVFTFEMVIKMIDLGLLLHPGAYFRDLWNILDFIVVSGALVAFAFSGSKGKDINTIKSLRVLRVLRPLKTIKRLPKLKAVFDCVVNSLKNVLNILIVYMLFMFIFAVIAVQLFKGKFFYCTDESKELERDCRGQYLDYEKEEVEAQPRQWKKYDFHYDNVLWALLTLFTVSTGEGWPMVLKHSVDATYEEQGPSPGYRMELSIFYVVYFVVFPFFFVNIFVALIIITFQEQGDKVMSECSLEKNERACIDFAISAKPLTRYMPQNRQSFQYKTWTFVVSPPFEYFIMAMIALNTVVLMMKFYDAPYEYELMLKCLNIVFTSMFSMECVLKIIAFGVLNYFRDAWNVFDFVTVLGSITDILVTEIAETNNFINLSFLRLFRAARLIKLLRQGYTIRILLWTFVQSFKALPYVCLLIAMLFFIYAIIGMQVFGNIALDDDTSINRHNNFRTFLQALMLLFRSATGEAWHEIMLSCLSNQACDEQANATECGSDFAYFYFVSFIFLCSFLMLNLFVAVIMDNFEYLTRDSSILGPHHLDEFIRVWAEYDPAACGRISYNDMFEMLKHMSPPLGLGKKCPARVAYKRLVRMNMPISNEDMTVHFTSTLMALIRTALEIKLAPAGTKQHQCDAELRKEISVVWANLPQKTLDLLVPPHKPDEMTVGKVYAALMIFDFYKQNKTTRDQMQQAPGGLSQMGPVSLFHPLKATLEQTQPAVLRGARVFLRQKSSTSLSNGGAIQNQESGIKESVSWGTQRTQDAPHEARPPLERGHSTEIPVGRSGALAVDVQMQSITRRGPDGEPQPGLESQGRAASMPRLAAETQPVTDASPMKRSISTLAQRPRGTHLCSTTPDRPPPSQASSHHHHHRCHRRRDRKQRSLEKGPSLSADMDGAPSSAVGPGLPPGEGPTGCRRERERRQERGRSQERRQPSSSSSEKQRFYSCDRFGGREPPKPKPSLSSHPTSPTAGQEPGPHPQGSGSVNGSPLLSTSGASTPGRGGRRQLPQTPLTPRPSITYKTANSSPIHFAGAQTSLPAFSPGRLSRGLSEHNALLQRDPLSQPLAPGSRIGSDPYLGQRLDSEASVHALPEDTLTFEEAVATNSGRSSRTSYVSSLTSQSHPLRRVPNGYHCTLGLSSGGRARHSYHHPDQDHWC
hCav2.2, sequence (P54284 whole entry partner): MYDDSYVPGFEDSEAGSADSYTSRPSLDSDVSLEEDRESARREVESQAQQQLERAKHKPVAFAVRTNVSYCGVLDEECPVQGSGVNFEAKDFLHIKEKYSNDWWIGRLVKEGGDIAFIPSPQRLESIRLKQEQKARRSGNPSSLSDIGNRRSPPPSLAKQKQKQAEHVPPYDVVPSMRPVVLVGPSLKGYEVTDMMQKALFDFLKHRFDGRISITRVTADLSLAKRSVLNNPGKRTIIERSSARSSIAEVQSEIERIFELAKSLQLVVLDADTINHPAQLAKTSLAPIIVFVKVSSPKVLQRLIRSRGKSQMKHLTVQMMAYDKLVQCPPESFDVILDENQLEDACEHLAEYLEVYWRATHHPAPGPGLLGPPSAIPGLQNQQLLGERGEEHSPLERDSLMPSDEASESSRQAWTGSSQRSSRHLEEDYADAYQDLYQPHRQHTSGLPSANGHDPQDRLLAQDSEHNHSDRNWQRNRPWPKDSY
hCav2.2, sequence (P54289 25-956 partner limits assumed): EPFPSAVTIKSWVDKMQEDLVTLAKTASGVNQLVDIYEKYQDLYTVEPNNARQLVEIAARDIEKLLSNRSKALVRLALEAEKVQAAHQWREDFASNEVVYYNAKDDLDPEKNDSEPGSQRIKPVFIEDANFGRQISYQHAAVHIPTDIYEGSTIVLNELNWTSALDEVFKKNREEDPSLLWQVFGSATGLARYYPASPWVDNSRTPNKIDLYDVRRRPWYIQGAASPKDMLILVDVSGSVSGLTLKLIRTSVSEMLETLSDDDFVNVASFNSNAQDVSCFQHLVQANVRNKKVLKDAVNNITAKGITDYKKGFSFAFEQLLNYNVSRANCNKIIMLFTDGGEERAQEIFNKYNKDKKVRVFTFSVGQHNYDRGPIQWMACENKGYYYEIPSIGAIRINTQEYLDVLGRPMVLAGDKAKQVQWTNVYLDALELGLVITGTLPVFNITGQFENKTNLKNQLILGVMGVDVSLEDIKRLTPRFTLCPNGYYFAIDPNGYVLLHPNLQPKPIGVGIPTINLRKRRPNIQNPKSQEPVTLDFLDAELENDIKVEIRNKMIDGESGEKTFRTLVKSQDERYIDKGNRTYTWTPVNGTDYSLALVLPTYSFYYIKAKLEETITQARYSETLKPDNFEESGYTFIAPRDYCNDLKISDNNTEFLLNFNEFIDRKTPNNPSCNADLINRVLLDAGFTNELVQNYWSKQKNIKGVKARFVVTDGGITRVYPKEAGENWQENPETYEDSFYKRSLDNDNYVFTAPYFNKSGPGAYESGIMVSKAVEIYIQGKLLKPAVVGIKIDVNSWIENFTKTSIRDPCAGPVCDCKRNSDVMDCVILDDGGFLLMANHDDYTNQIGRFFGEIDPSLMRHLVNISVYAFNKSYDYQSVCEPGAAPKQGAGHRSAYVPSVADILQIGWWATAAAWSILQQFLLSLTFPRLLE
hCav2.2, sequence (P54289 957-1103 partner limits assumed): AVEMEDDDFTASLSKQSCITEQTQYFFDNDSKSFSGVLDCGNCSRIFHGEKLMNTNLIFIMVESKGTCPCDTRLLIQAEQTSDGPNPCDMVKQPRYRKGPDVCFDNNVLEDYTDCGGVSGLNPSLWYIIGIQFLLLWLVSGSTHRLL
T2 sequence (Q12809 whole entry): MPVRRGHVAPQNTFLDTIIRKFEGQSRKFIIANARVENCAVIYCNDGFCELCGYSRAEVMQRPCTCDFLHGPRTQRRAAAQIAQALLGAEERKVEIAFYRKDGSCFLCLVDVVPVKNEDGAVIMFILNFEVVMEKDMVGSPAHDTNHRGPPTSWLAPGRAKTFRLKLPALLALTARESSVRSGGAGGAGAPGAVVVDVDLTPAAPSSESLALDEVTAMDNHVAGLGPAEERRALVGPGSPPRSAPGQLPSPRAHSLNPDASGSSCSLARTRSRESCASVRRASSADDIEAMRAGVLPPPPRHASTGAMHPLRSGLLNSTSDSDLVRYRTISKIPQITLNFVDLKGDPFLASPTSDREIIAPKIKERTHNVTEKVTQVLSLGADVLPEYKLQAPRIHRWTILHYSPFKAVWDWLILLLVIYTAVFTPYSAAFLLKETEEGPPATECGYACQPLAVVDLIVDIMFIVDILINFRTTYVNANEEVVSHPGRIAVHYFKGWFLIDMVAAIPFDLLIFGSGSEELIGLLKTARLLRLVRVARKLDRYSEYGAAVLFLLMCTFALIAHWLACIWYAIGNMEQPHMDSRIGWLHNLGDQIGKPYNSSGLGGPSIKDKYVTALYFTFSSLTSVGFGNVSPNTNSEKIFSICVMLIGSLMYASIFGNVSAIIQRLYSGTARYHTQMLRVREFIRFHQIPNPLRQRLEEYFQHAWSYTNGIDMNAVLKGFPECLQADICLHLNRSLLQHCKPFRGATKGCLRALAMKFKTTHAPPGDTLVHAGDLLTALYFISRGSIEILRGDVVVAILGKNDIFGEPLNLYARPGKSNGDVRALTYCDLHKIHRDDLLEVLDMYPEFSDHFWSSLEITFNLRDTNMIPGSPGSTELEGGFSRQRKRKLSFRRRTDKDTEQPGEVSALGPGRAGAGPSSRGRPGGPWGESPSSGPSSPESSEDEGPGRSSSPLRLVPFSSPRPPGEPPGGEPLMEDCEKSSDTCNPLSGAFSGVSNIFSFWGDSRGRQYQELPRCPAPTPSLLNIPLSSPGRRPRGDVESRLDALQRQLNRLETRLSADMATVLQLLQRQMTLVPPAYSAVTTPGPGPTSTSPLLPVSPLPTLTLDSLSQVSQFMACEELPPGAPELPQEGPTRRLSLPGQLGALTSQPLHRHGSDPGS

| SMILES | pIC50 [1] | K/T [1] | pIC50 [2] | Na/T [2] | pIC50 [3] | hCav3.2 Channel % Use Dep. (use dependent inhibition) [3] [%] | hERG % at 1 μM [4] [% at] | inhibition of histamine-induced itching scratching behavior [5] | inhibition of chloroquine-induced itching scratching behavior [7] | pIC50 [6] | pIC50 [9] | pIC50 [10] | pIC50 [11] | reduction of the number of cough events [12, 14] [%] | latency to the first cough [12, 15] | pIC50 [4] | other results |
| --- | --- | --- | --- | --- | --- | --- | --- | --- | --- | --- | --- | --- | --- | --- | --- | --- | --- |
| CC(C)(C)CCN1CCC2(CC1)CC2N(CC1CC1)C(=O)c1cc(Cl)cc(Cl)c1 (stereo not shown) [AFA-206] | 5.17 | 102 | 4.69 | 303 | 7.17 | 8.2 | 50 | preferentially inhibited histamine-induced itching |  |  |  |  |  |  |  |  |  |
| CC(C)(C)CCN1CCC2(CC1)CC2NC(=O)Cc1cc(C(F)(F)F)cc(C(F)(F)F)c1 (stereo not shown) [AFA-221] | ~4.52 | 357 | 5.44 | 43 | 7.08 | 28.3 | 31 | potent and equal efficacy | potent and equal efficacy |  |  |  |  |  |  |  | hCav2.2 % at 3 μM ([6]; at 3 μM): 47% at; inhibition of chloroquine-induced itching scratching behavior ([7]; listed as EX-31): effective; inhibition of histamine-induced itching scratching behavior ([5]; listed as EX-31): effective |
| CC(C)(C)NC(=O)CN1CCC(CNC(=O)c2cc(F)cc(Cl)c2)CC1 [AFA-258, reference compound] | < 4.00 | >513 | < 4.00 | >513 | 6.71 | 17.6 |  |  | did not produce anti-itching effects | < 4.52 | 6.70 | 4.67 | < 4.00 |  |  |  | pIC50 [8]: < 4.52 |
| CC(C)(C)NC(=O)CN1CCC2(CC1)CC2NC(=O)c1cc(F)cc(Cl)c1 (stereo not shown) [AFA-279] | < 4.00 | >1115 | < 4.00 | >1115 | 6.95 | 21.3 |  | did not produce anti-itching effects | did not produce anti-itching effects | < 5.00 | 6.72 | 4.08 | 4.12 | 39.1 | trend of increasing the latency, but not reaching significant difference | 5.17 |  |
| CC(C)(C)NC(=O)CN1CCC2(CC1)CC2NC(=O)c1cc(F)cc(C(F)(F)F)c1 (stereo not shown) [AFA-281] | < 4.00 | >557 | < 4.00 | >557 | 6.75 | 13.9 |  | potent and equal efficacy | potent and equal efficacy | < 4.52 | 6.22 | 4.50 | < 4.00 | 33 | trend of increasing the latency, but not reaching significant difference | 5.10 | inhibition of chloroquine-induced itching scratching behavior ([7]; listed as EX-130): effective; inhibition of histamine-induced itching scratching behavior ([5]; listed as EX-130): effective |
| CC(C)(C)NC(=O)CN1CCC2(CC1)C[C@H]2NC(=O)C12CC3CC(CC(C3)C1)C2 [AFA-309] | < 4.52 | >212 | < 4.52 | >212 | 6.85 | 4.2 |  | preferentially inhibited histamine-induced itching |  | 4.81 |  |  | 4.59 |  |  | < 4.52 | pIC50 [8]: < 4.52; hiPSC INa % at 3 μM ([10]; at 3 μM): 0% at |
| CC(C)(C)NC(=O)CN1CCC2(CC1)CC2C(=O)Nc1cc(C(F)(F)F)cc(C(F)(F)F)c1 (stereo not shown) [AFA-322] | < 4.00 | >723 | 4.84 | 103 | 6.86 | 25.6 |  | preferentially inhibited histamine-induced itching |  | 5.51 | 6.82 | 4.29 | 4.63 | 15.7 | trend of increasing the latency, but not reaching significant difference | 5.04 |  |
| C[C@H]1CN(S(=O)(=O)c2ccc(C(F)(F)F)cc2)CCN1C(=O)c1ccc2cccnc2c1 [AFA-353] | < 4.00 | >10 | < 4.00 | >10 | 4.98 |  | 23 |  |  | 5.05 |  |  |  |  |  |  |  |
| O=C(NC1CC12CCN(S(=O)(=O)c1ccc(C(F)(F)F)cc1)CC2)c1cc(C(F)(F)F)cc(C(F)(F)F)c1 (stereo not shown) [AFA-358] | < 4.52 | >30 | < 4.52 | >30 | 5.99 |  | 59 | effective; also recorded: potent and equal efficacy | effective; also recorded: potent and equal efficacy | 6.13 |  |  |  |  |  |  |  |
| CC(C)(C)NC(=O)CN1CCC2(CC1)CC2NC(=O)c1ccc(Cl)cc1F (stereo not shown) [EX-17] |  |  |  |  |  |  |  |  |  |  |  |  |  | 36.8 | reached significance; also recorded: significant increases |  | reduction of the number of cough events ([12]; 3 mg/kg p.o., 30 min before citric acid): 7.2%; reduction of the number of cough events ([12]; 10 mg/kg p.o., 30 min before citric acid): 23.3%; latency to the first cough ([12]; p.o., EX compounds 3-30 mg/kg, dextromethorphan 60 mg/kg): increases in the latencies of the first cough in a dose-dependent manner |
| COc1ccc2c(c1)[C@]13CCCC[C@@H]1[C@H](C2)N(C)CC3 [dextromethorphan, reference compound] |  |  |  |  |  |  |  |  |  |  |  |  |  |  |  |  | reduction of the number of cough events ([12]; 60 mg/kg p.o., 60 min before citric acid): 40.0% and 42.6%; latency to the first cough ([12]; 60 mg/kg p.o., vs vehicle-treated control): significant increases; also recorded: trend of increasing the latency, but not reaching significant difference; latency to the first cough ([12]; 60 mg/kg p.o., vs vehicle-treated control, listed as dextromethorphan hydrobromide): reached significance |
| COCC(=O)O[C@]1(CCN(C)CCCc2nc3ccccc3[nH]2)CCc2cc(F)ccc2[C@@H]1C(C)C [mibefradil] |  |  |  |  |  |  |  |  |  |  |  |  |  |  |  |  | more potent inhibition of the T-type than of the L-type Ca2+ current or the voltage-gated Na+ current [13]: 3-10 times |

Reference: patent US11744825B2, “Methods of treating hypersensitive cough or itching using ion channel inhibitory compounds” (AFASCI, Inc., priority 2018, dated 2023)
